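Tested at 5 concentrations; 48 h exposure; 96-well plates; endpoints linearly interpolated, else capped at highest concentration. The concentration for 50% growth inhibition is given as GI50.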 Activity calls are given as the source filed them. No stated cut-off is given here; in the data, active = GI50 up to about 1.1 µM and inactive = higher.
Experiments:
Experiment in all cases: NCI tumour cell line growth inhibition, 48 h
A498 = test system: A498
EKVX = test system: EKVX
HCC 2998 = test system: HCC 2998
HL-60 = test system: HL-60
HT-29 = test system: HT-29
K562 = test system: K562
MCF7 = test system: MCF7
MOLT-4 = test system: MOLT-4
Malme-3M = test system: Malme-3M
NCI/ADR-RES = test system: NCI/ADR-RES
PC-3 = test system: PC-3
RPMI-8226 = test system: RPMI-8226
RXF 393 = test system: RXF 393
SF-539 = test system: SF-539
SK-MEL-5 = test system: SK-MEL-5
SW-620 = test system: SW-620
TK-10 = test system: TK-10
UACC-257 = test system: UACC-257
UACC-62 = test system: UACC-62
UO-31 = test system: UO-31

Compound	GI50 (A498)	GI50 (EKVX)	GI50 (HCC 2998)	GI50 (HL-60)	GI50 (HT-29)	GI50 (K562)	GI50 (MCF7)	GI50 (MOLT-4)	GI50 (Malme-3M)	GI50 (NCI/ADR-RES)	GI50 (PC-3)	GI50 (RPMI-8226)	GI50 (RXF 393)	GI50 (SF-539)	GI50 (SK-MEL-5)	GI50 (SW-620)	GI50 (TK-10)	GI50 (UACC-257)	GI50 (UACC-62)	GI50 (UO-31)
CS(=O)(=O)OCCN(CCOS(C)(=O)=O)c1ccc(C=O)cc1	1.74 µM (inactive)	7.05 µM (inactive)	2.17 µM (inactive)	2.07 µM (inactive)	3.96 µM (inactive)	20.1 µM (inactive)	4.7 µM (inactive)	0.233 µM (active)	8.77 µM (inactive)	7.1 µM (inactive)	19.4 µM (inactive)	8.63 µM (inactive)	0.432 µM (active)	2.18 µM (inactive)	6.27 µM (inactive)	14.9 µM (inactive)	2.94 µM (inactive)	8.32 µM (inactive)	1.27 µM (inactive)	1.11 µM (active)
CC(=O)Nc1cc2ccc(=O)oc2cc1Cl	> 100 µM (inactive)	> 100 µM (inactive)	> 100 µM (inactive)	> 100 µM (inactive)	> 100 µM (inactive)	> 100 µM (inactive)	> 100 µM (inactive)	> 100 µM (inactive)	> 100 µM (inactive)	> 100 µM (inactive)	> 100 µM (inactive)	> 100 µM (inactive)	> 100 µM (inactive)	> 100 µM (inactive)	> 100 µM (inactive)	> 100 µM (inactive)		> 100 µM (inactive)	> 100 µM (inactive)	> 100 µM (inactive)
O=c1oc(C(C(F)(F)F)C(F)(F)F)nc2ccccc12	> 100 µM (inactive)	> 100 µM (inactive)	> 100 µM (inactive)	> 100 µM (inactive)	> 100 µM (inactive)	> 100 µM (inactive)	> 100 µM (inactive)	> 100 µM (inactive)	> 100 µM (inactive)	> 100 µM (inactive)	> 100 µM (inactive)	> 100 µM (inactive)	> 100 µM (inactive)	> 100 µM (inactive)	> 100 µM (inactive)	> 100 µM (inactive)	> 100 µM (inactive)	> 100 µM (inactive)		> 100 µM (inactive)
COc1ccccc1/C=C\c1cnnc2ccccc12	> 10 µM (inactive)	8.79 µM (inactive)	> 10 µM (inactive)	> 10 µM (inactive)	3.77 µM (inactive)	4.7 µM (inactive)	3.56 µM (inactive)	6.24 µM (inactive)	> 10 µM (inactive)	> 10 µM (inactive)	> 10 µM (inactive)	> 10 µM (inactive)	> 10 µM (inactive)	> 10 µM (inactive)	6.71 µM (inactive)	> 10 µM (inactive)	> 10 µM (inactive)	> 10 µM (inactive)	> 10 µM (inactive)	
Cc1cc(-c2nc3cc(F)ccc3s2)ccc1NC(=O)[C@@H](N)CCCCN	10.2 µM (inactive)	1.87 µM (inactive)	0.735 µM (active)	2.02 µM (inactive)	2.82 µM (inactive)	2.17 µM (inactive)	0.01 µM (active)	1.3 µM (inactive)	17.4 µM (inactive)	15.2 µM (inactive)	8.05 µM (inactive)	2.09 µM (inactive)	7.26 µM (inactive)	4.99 µM (inactive)	13.4 µM (inactive)	2.65 µM (inactive)	< 0.0132 µM (active)	5.71 µM (inactive)	9.55 µM (inactive)	3.29 µM (inactive)
CC(=O)OC12c3ccccc3-c3ccccc3C1C(C(=O)O)C2(Cl)C(=O)O (stereo unspecified)	> 10 µM (inactive)	> 10 µM (inactive)	> 10 µM (inactive)	> 10 µM (inactive)	> 10 µM (inactive)	> 10 µM (inactive)	> 10 µM (inactive)	> 10 µM (inactive)	> 10 µM (inactive)	> 10 µM (inactive)	> 10 µM (inactive)	> 10 µM (inactive)	> 10 µM (inactive)	> 10 µM (inactive)	> 10 µM (inactive)	> 10 µM (inactive)	> 10 µM (inactive)	> 10 µM (inactive)		> 10 µM (inactive)

— ChEMBL document CHEMBL1201862, “PubChem BioAssay data set” (2004)
